According to US20200060276A1, “THIAZOLE COMPOUND AND HERBICIDE” (OAT Agrio Co., Ltd., priority 2017, published 2020):

Columns and labels:
Format in all cases: in vivo
Scirpus juncoides = test: Test for Herbicidal Effect in Flooding Treatment (#1), SCIJU; details: for SCIJU #1 herbicidal effect (growth inhibition grade): flooding treatment at seeding, dose 2 kg/ha, visual observation on day 21; for SCIJU #1 herbicidal effect (growth inhibition rating 0-5): flooding treatment #1
In short: (§1)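 Sieved soil in cups was flooded and left 24 h before weed seeds were sown. Compounds in acetone, diluted with Tween 80-containing water, were dropped over the whole surface at 2 kg/ha. After 21 days in a glasshouse, growth inhibition was scored visually from 0 (<10%) to 5 (≥90% or complete withering).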

[1] = tested on: Echinochloa crus-galli (L.) P. Beauv. var. formosensis Ohwi; test: Test for Herbicidal Effect in Flooding Treatment (#2), ECHDG at 2-2.5 leaf stage; details: for ECHDG (2-2.5L) #2 herbicidal effect (growth inhibition grade): flooding treatment at 2-2.5 leaf stage, dose 0.2 kg/ha, visual observation on day 21; for ECHDG (2-2.5L) #2 herbicidal effect (growth inhibition rating 0-5): flooding treatment #2, 2-2.5 leaf stage
In short: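 Flooded muddy soil was seeded with the weed, and at 2–2.5 leaf stage compound in acetone/Tween 80 water was dropped on the water surface at 0.2 kg/ha. Plants were kept in a glasshouse and scored visually on day 21 from 0 (<10% growth inhibition) to 5 (≥90% or complete withering).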

[2] = tested on: Echinochloa crus-galli (L.) P. Beauv. var. formosensis Ohwi; test: Test for Herbicidal Effect in Flooding Treatment (#1), ECHDG; details: for ECHDG #1 herbicidal effect (growth inhibition grade): flooding treatment at seeding, dose 2 kg/ha, visual observation on day 21; for ECHDG #1 herbicidal effect (growth inhibition rating 0-5): flooding treatment #1
In short: as §1

Monochoria vaginalis = test: Test for Herbicidal Effect in Flooding Treatment (#1), MONVA; details: for MONVA #1 herbicidal effect (growth inhibition grade): flooding treatment at seeding, dose 2 kg/ha, visual observation on day 21; for MONVA #1 herbicidal effect (growth inhibition rating 0-5): flooding treatment #1
In short: as §1

Structure (SMILES) | SCIJU #1 herbicidal effect (growth inhibition grade) (Scirpus juncoides) | ECHDG (2-2.5L) #2 herbicidal effect (growth inhibition grade) [1] | ECHDG #1 herbicidal effect (growth inhibition grade) [2] | MONVA #1 herbicidal effect (growth inhibition grade) (Monochoria vaginalis) | SCIJU #1 herbicidal effect (growth inhibition rating 0-5) (Scirpus juncoides) | ECHDG (2-2.5L) #2 herbicidal effect (growth inhibition rating 0-5) [1] | ECHDG #1 herbicidal effect (growth inhibition rating 0-5) [2] | MONVA #1 herbicidal effect (growth inhibition rating 0-5) (Monochoria vaginalis)
O=S(=O)(Cc1c(Cl)cccc1OC(F)F)c1ncc(Br)s1 [Compound 1C-154] | 5 (Growth inhibition effect is equal to or greater than 90%, or complete withering is achieved) | 5 (Growth inhibition effect is equal to or greater than 90%, or complete withering is achieved) | 5 (Growth inhibition effect is equal to or greater than 90%, or complete withering is achieved) | 5 (Growth inhibition effect is equal to or greater than 90%, or complete withering is achieved) |  |  |  | 
COc1ccc(Cl)c(CS(=O)(=O)c2ncc(Cl)s2)c1Cl [Compound 1C-73] | 5 (Growth inhibition effect is equal to or greater than 90%, or complete withering is achieved) | 5 (Growth inhibition effect is equal to or greater than 90%, or complete withering is achieved) | 5 (Growth inhibition effect is equal to or greater than 90%, or complete withering is achieved) | 5 (Growth inhibition effect is equal to or greater than 90%, or complete withering is achieved) |  |  |  | 
COC(=O)C(c1c(F)cccc1OC(F)F)S(=O)(=O)c1ncc(Cl)s1 (racemic) [Compound 1C-145] | 5 (Growth inhibition effect is equal to or greater than 90%, or complete withering is achieved) | 5 (Growth inhibition effect is equal to or greater than 90%, or complete withering is achieved) | 5 (Growth inhibition effect is equal to or greater than 90%, or complete withering is achieved) | 5 (Growth inhibition effect is equal to or greater than 90%, or complete withering is achieved) |  |  |  | 
O=S(=O)(Cc1c(OCC(F)F)cccc1C(F)(F)F)c1ncc(Cl)s1 [Compound 1C-52] | 5 (Growth inhibition effect is equal to or greater than 90%, or complete withering is achieved) | 5 (Growth inhibition effect is equal to or greater than 90%, or complete withering is achieved) | 5 (Growth inhibition effect is equal to or greater than 90%, or complete withering is achieved) | 5 (Growth inhibition effect is equal to or greater than 90%, or complete withering is achieved) |  |  |  | 
[2H]C([2H])(c1c(Cl)cccc1OC(F)F)S(=O)(=O)c1ncc(Cl)s1 [Compound 1C-132] | 5 (Growth inhibition effect is equal to or greater than 90%, or complete withering is achieved) | 5 (Growth inhibition effect is equal to or greater than 90%, or complete withering is achieved) | 5 (Growth inhibition effect is equal to or greater than 90%, or complete withering is achieved) | 5 (Growth inhibition effect is equal to or greater than 90%, or complete withering is achieved) |  |  |  | 
O=S(=O)(Cc1c(F)ccc(F)c1OC(F)F)c1ncc(Br)s1 [Compound 1C-155] | 5 (Growth inhibition effect is equal to or greater than 90%, or complete withering is achieved) | 5 (Growth inhibition effect is equal to or greater than 90%, or complete withering is achieved) | 5 (Growth inhibition effect is equal to or greater than 90%, or complete withering is achieved) | 5 (Growth inhibition effect is equal to or greater than 90%, or complete withering is achieved) |  |  |  | 
O=S(=O)(Cc1c(OCC(F)(F)F)cccc1C(F)(F)F)c1ncc(Br)s1 [Compound 1C-162] | 5 (Growth inhibition effect is equal to or greater than 90%, or complete withering is achieved) | 5 (Growth inhibition effect is equal to or greater than 90%, or complete withering is achieved) | 5 (Growth inhibition effect is equal to or greater than 90%, or complete withering is achieved) | 5 (Growth inhibition effect is equal to or greater than 90%, or complete withering is achieved) |  |  |  | 
[2H]C([2H])(c1ccccc1OCC(F)(F)F)S(=O)(=O)c1ncc(Cl)s1 [Compound 1C-134] | 5 (Growth inhibition effect is equal to or greater than 90%, or complete withering is achieved) | 5 (Growth inhibition effect is equal to or greater than 90%, or complete withering is achieved) | 5 (Growth inhibition effect is equal to or greater than 90%, or complete withering is achieved) | 5 (Growth inhibition effect is equal to or greater than 90%, or complete withering is achieved) |  |  |  | 
[2H]C([2H])(c1c(Cl)cccc1OC(F)(F)F)S(=O)(=O)c1ncc(Cl)s1 [Compound 1C-133] | 5 (Growth inhibition effect is equal to or greater than 90%, or complete withering is achieved) | 5 (Growth inhibition effect is equal to or greater than 90%, or complete withering is achieved) | 5 (Growth inhibition effect is equal to or greater than 90%, or complete withering is achieved) | 5 (Growth inhibition effect is equal to or greater than 90%, or complete withering is achieved) |  |  |  | 
O=S(=O)(Cc1c(F)cccc1OCC(F)(F)C(F)(F)F)c1ncc(Cl)s1 [Compound 1C-61] | 5 (Growth inhibition effect is equal to or greater than 90%, or complete withering is achieved) | 5 (Growth inhibition effect is equal to or greater than 90%, or complete withering is achieved) | 5 (Growth inhibition effect is equal to or greater than 90%, or complete withering is achieved) | 5 (Growth inhibition effect is equal to or greater than 90%, or complete withering is achieved) |  |  |  | 
O=S(=O)(Cc1ccccc1OCC(F)(F)F)c1ncc(Cl)s1 [Compound 1C-53] | 5 (Growth inhibition effect is equal to or greater than 90%, or complete withering is achieved) | 5 (Growth inhibition effect is equal to or greater than 90%, or complete withering is achieved) | 5 (Growth inhibition effect is equal to or greater than 90%, or complete withering is achieved) | 5 (Growth inhibition effect is equal to or greater than 90%, or complete withering is achieved) |  |  |  | 
COc1cccc(Cl)c1C[S+]([O-])c1ncc(Cl)s1 (stereo not shown) [Compound 1B-1] |  |  |  |  | 4 (Growth inhibition effect is equal to or greater than 70%, and less than 90%) | 4 (Growth inhibition effect is equal to or greater than 70%, and less than 90%) | 5 (Growth inhibition effect is equal to or greater than 90%, or complete withering is achieved) | 3 (Growth inhibition effect equal to or greater than 50%, and less than 70%)
O=S(=O)(Cc1c(F)cccc1OCC(F)(F)C(F)F)c1ncc(Br)s1 [Compound 1C-164] | 5 (Growth inhibition effect is equal to or greater than 90%, or complete withering is achieved) | 5 (Growth inhibition effect is equal to or greater than 90%, or complete withering is achieved) | 5 (Growth inhibition effect is equal to or greater than 90%, or complete withering is achieved) | 5 (Growth inhibition effect is equal to or greater than 90%, or complete withering is achieved) |  |  |  | 
O=S(=O)(Cc1c(F)cccc1OCCC(F)(F)F)c1ncc(Cl)s1 [Compound 1C-58] | 5 (Growth inhibition effect is equal to or greater than 90%, or complete withering is achieved) | 5 (Growth inhibition effect is equal to or greater than 90%, or complete withering is achieved) | 5 (Growth inhibition effect is equal to or greater than 90%, or complete withering is achieved) | 5 (Growth inhibition effect is equal to or greater than 90%, or complete withering is achieved) |  |  |  | 
CC(c1c(F)cccc1OCC(F)F)S(=O)(=O)c1ncc(Cl)s1 (racemic) [Compound 1C-142] | 5 (Growth inhibition effect is equal to or greater than 90%, or complete withering is achieved) | 5 (Growth inhibition effect is equal to or greater than 90%, or complete withering is achieved) | 5 (Growth inhibition effect is equal to or greater than 90%, or complete withering is achieved) | 5 (Growth inhibition effect is equal to or greater than 90%, or complete withering is achieved) |  |  |  | 
[O-][S+](Cc1c(F)cccc1OC(F)F)c1ncc(Br)s1 (stereo not shown) [Compound 1B-19] |  |  |  |  | 5 (Growth inhibition effect is equal to or greater than 90%, or complete withering is achieved) | 5 (Growth inhibition effect is equal to or greater than 90%, or complete withering is achieved) | 5 (Growth inhibition effect is equal to or greater than 90%, or complete withering is achieved) | 5 (Growth inhibition effect is equal to or greater than 90%, or complete withering is achieved)
